Target: Coagulation factor IX (Homo sapiens, UniProt P00740)
Test: Test substances were dissolved in buffer A (50 mM α,α,α-tris(hydroxymethyl) methylamine (Tris), 100 mM NaCl, 5 mM CaCl2, 15% (v/v) ethylene glycol, pH 8.0) were mixed with factor IXa (0.1 μg/ml final concentration). The enzyme reaction was started by addition of SPECTROFLUOR FIXa (100 μM final concentration).

Sequence of Coagulation factor IX (P00740 47-191 limits assumed): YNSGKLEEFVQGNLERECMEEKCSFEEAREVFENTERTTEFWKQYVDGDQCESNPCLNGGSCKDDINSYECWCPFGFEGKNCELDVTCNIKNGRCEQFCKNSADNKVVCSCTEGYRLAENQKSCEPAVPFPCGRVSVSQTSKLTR
Sequence of Coagulation factor IX (P00740 227-461 limits assumed): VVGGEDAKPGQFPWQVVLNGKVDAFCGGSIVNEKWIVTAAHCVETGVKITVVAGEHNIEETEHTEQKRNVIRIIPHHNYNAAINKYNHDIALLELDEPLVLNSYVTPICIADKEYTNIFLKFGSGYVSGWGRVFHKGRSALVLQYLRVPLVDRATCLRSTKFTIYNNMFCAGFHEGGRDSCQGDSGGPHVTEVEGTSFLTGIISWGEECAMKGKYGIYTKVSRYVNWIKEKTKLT

- IC50: < 100 nM
Structure (SMILES): Nc1noc2c(N3CCC(NC(=O)c4c(Cl)cc(-n5cnnc5)cc4Cl)(c4ccccc4)C3)cccc12 (stereo unspecified)

From ChEMBL document CHEMBL5727030, “Factor IXa inhibitors” (2018)
